Measured values from PMC4728126, “Stable G protein-effector complexes in striatal neurons: mechanism of assembly and role in neurotransmitter signaling” (eLife, 2015).

Target: T1, D1R (Homo sapiens, UniProt P21728)
T1 construct: gene DRD1; cDNA from Missouri S&T cDNA Resource Center, transiently expressed in HEK293T/17 with Golf (Gαolf, Venus-Gβ2γ7), Ric-8B and masGRK3ct-Nluc BRET reporter
Test: BRET G protein activation assay (masGRK3ct-Nluc / Venus-Gβ[…]γ[…]), HEK293T/[…]
Assay type: cell-based
Settings: antagonist, […], against […] dopamine; Golf co-expressed

T1 sequence (P21728 whole entry): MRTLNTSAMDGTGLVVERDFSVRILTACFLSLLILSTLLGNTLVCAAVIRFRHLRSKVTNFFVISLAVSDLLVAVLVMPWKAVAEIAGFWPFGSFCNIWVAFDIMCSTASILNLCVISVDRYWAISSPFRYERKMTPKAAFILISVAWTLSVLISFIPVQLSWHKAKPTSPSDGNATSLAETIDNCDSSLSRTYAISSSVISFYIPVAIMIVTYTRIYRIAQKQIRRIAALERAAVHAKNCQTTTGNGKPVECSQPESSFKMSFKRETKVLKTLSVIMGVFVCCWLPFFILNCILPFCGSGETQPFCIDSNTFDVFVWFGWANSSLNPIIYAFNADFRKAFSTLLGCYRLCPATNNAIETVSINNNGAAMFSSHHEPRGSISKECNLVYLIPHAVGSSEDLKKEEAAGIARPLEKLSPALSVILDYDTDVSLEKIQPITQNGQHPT

## CN1CCc2cc(Cl)c(O)cc2[C@H]2c3ccccc3CC[C@@H]21 [SCH39166]
  BRET G protein activation assay (masGRK3ct-Nluc / Venus-Gβ2γ7), HEK293T/17: application of an antagonist SCH39166 facilitates complex re-association and quenching of the BRET response
